ChEMBL document CHEMBL5678818, “Discovery of potent SOS1 inhibitors that block RAS activation via disruption of the RAS-SOS1 interaction” (Proc Natl Acad Sci U S A, 2019)

Experiments:
[1] = biological target: T1, Serine/threonine-protein kinase 17A (Homo sapiens) (UniProt Q9UEE5); assay: Inhibition of DRAK1 (unknown origin) assessed as residual activity at 1000 nM by KINOMEscan analysis relative to control
T1 sequence (whole entry): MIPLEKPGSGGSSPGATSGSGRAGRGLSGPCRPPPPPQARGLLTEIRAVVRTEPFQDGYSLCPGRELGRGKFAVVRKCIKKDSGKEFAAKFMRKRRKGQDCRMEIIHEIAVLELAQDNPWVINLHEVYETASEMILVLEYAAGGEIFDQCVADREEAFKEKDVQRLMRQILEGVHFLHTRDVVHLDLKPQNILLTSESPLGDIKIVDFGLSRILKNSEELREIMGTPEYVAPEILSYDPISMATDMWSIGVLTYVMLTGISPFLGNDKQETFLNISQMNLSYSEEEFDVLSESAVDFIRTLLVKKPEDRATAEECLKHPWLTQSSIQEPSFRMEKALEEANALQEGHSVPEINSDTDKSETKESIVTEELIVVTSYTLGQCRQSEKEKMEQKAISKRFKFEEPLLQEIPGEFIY

[2] = biological target: T2, Ephrin type-B receptor 6 (Homo sapiens) (UniProt O15197); assay: Inhibition of EPHB6 (unknown origin) assessed as residual activity at 1000 nM by KINOMEscan analysis relative to control
T2 sequence (whole entry): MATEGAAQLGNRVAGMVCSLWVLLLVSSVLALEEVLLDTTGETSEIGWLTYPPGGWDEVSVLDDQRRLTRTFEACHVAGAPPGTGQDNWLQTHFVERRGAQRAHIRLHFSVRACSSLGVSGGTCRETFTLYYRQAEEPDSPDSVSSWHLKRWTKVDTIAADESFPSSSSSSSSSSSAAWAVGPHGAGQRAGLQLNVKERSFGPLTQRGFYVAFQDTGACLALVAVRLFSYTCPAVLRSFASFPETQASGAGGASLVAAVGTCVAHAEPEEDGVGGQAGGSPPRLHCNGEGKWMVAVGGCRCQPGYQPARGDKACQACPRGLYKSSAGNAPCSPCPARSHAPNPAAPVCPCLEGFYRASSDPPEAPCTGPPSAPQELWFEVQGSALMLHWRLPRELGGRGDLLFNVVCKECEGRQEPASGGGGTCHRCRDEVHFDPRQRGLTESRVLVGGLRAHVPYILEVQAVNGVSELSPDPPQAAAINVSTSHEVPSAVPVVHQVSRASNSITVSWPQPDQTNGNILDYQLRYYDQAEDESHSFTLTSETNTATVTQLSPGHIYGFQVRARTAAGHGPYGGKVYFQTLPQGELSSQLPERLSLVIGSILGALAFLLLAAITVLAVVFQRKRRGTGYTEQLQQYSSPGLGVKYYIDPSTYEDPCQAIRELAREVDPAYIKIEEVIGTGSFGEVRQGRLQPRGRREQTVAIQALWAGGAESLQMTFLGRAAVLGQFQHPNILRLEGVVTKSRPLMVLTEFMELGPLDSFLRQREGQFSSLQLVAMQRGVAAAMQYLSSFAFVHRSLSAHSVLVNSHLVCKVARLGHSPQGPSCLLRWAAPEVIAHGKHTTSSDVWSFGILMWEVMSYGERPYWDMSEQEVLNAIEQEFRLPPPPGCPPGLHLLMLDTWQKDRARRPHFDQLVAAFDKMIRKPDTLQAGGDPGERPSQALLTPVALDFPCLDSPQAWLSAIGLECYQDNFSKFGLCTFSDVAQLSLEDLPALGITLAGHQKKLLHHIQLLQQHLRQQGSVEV

Homo sapiens = organism: Homo sapiens; assay: Inhibition of JNK3 (unknown origin) assessed as residual activity at 1000 nM by KINOMEscan analysis relative to control
[3] = biological target: T3, Phosphatidylinositol 3-kinase C2 domain-containing subunit gamma (Homo sapiens) (UniProt O75747); assay: Inhibition of PIK3C2G (unknown origin) assessed as residual activity at 1000 nM by KINOMEscan analysis relative to control
T3 sequence (whole entry): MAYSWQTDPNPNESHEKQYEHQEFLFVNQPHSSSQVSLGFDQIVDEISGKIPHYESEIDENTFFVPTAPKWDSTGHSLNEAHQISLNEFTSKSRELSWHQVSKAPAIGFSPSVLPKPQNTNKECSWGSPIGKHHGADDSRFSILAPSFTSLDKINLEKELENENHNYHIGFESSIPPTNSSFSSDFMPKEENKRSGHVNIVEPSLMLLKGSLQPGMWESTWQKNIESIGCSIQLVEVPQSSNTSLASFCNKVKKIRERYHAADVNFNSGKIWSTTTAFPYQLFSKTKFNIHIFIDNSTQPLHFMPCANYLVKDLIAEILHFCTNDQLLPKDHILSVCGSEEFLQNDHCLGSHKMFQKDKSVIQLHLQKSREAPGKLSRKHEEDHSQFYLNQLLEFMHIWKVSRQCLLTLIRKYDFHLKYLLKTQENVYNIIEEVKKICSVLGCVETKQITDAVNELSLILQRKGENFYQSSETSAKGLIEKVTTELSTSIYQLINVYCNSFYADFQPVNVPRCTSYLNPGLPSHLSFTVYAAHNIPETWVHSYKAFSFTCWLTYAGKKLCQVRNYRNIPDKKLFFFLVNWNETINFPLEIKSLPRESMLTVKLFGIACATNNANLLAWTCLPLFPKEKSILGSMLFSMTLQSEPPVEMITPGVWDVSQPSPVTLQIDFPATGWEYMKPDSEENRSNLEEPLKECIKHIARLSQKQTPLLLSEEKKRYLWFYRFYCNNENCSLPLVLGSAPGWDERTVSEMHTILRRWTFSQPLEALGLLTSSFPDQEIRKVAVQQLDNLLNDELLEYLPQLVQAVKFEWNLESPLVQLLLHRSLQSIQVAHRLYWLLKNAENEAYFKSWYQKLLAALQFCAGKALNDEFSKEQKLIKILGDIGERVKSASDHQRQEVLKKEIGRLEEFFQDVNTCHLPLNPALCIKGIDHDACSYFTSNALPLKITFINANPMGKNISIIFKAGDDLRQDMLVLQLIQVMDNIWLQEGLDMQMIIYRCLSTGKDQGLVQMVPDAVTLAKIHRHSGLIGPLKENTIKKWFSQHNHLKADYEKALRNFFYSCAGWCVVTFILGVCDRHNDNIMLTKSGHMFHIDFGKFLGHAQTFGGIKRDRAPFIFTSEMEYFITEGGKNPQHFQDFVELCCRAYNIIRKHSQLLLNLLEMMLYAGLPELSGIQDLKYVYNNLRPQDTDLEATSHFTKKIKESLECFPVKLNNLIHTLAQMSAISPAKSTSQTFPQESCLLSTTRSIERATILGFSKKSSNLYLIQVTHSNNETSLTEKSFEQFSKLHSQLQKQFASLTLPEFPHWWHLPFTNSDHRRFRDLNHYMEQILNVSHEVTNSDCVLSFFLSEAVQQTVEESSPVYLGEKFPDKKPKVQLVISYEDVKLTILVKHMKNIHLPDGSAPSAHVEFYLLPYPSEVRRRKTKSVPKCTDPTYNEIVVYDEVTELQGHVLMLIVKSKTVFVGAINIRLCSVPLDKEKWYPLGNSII

SMILES | Activity [1] | Activity [2] | Activity (Homo sapiens) | Activity [3]
COc1cc2nc(C)nc(N[C@H](C)c3cccc(-c4cn[nH]c4)c3)c2cc1OC | 87% | 100% | 80% | 87%
COc1cc2ncnc(N[C@H](C)c3cccc4ccccc34)c2cc1OC | 100% | 73% | 97% | 35%
